Data: PMC3951225, “Cytotoxic Sesquiterpene Lactones from Kauna lasiophthalma Griseb” (Scientia Pharmaceutica, 2014)
Entries after “also recorded” stand apart in the source; their conditions may differ.

How the values were obtained:
Format in all cases: cell-based, human
SK-BR-3 cells = assay: MTT cytotoxicity dose-response assay, SK-BR-3; settings: 72 h treatment, a/b/c = one, two, three or more dose-response curves
Protocol: (§1) The L56Br-C1 cell line was established at the Department of Oncology, Clinical Sciences, Lund University, Sweden. The JIMT-1 cell line was purchased from the German Collection of Microorganisms and Cell Cultures (Braunschweig, Germany) and the MCF-7, SK-BR-3, HCC1937, and MCF-10A cells were obtained from the American Tissue Type Culture Collection (Manassas, VA, USA). The cell lines were cultured as monolayers at 37°C in a humidified incubator with 5% CO2 in air. The MCF-10A cells have a population doubling time of 15 hours, the JIMT-1 cells 24 hours, and the other four cell lines around 35 hours.
(§2) The L56Br-C1, MCF-7, SK-BR-3, and HCC1937 cells were cultured as described by Holst et al. JIMT-1 cells were cultured in DMEM/Ham’s F12 medium supplemented with 10% fetal calf serum, non-essential amino acids (1 mM), insulin (10 μg/ml), penicillin (100 U/ml), and streptomycin (100 μg/ml). MCF-10A cells were maintained in RPMI 1640 medium supplemented with 10% heat-inactivated fetal calf serum, non-essential amino acids (1 mM), insulin (10 μg/ml), epidermal growth factor (20 ng/ml), cholera toxin (50 ng/ml), hydrocortisone (250 ng/ml), penicillin (100 U/ml), and streptomycin (100 μg/ml). The MCF-10A and JIMT-1 cell lines were sub-cultured twice a week, while the L56Br-C1, MCF-7, SK-BR-3, and HCC1937 cells were sub-cultured once a week with an additional change of growth medium once a week.
(§3) Stock solutions ([…]) of the compounds were made in 100% DMSO. These were further diluted in PBS to obtain the correct concentrations used for the MTT assay. Appropriate DMSO controls were used. In general, the highest DMSO concentration was 0.1%, however, when treating with 100 μM and starting from a […] in 100% DMSO, a final concentration of 1% DMSO was used as the control.
(§4) The MTT assay was performed as previously described. Briefly, the cells were trypsinized and counted in a hemocytometer. Aliquots of 180 μl cell suspensions containing 3000 (MCF-10A) and 6000 (MCF-7, SK-BR-3, JIMT-1, L56Br-C1, and HCC1937) cells were seeded in the wells of 96-well plates. Compounds were added 24 hours after seeding to allow the attachment of cells. A concentration range between 0.1 to 100 μM was used in the MTT assays and appropriate DMSO controls. At 72 h of drug treatment, 20 μl of MTT solution (5 mg/ml MTT in PBS) was added to each well and the 96-well plates were returned to the CO2 incubator for 1 hour. The MTT-containing medium was removed. The blue formazan product formed by the reduction in live attached cells was dissolved by adding 100 μl of 100% DMSO per well after removal of the MTT-containing medium. The plates were swirled gently at room temperature for 10 minutes to dissolve the precipitate. Absorbance was monitored at 540 nm in a Labsystems iEMS Reader MF (Labsystems Oy, Helsinki, Finland) using the DeltaSoft II v.4.14 software (Biometallics Inc., Princeton, NJ, USA). Dose-response curves were drawn based on the % of the control in Excel. The IC50 was deduced from the curves.

[1] = MTT cytotoxicity dose-response assay, MCF-10A (non-cancerous); settings: human, MCF-10A cells (normal-like breast epithelial cell line), 72 h treatment, a/b/c = one, two, three or more dose-response curves
Protocol: as §1, §2, §3, §4

L56Br-C1 cells = assay: MTT cytotoxicity dose-response assay, L56Br-C1; settings: 72 h treatment, a/b/c = one, two, three or more dose-response curves
Protocol: as §1, §2, §3, §4

HCC1937 cells = assay: MTT cytotoxicity dose-response assay, HCC1937; settings: 72 h treatment, a/b/c = one, two, three or more dose-response curves
Protocol: as §1, §2, §3, §4

MCF-7 cells = assay: MTT cytotoxicity dose-response assay, MCF-7; settings: 72 h treatment, a/b/c = one, two, three or more dose-response curves
Protocol: as §1, §2, §3, §4

[2] = system: breast cancer cell lines HCC1937, JIMT-1, L56Br-C1, MCF-7, and SK-BR-3; assay: MTT assay, panel of five breast cancer cell lines; settings: for Anticancer activity / relative potency in words: breast cell lines, comparison among the tested compounds
Protocol: The anticancer activities of sesquiterpenes 1, 3, 6–9, 11, 12, 14, and 16 were assessed in five breast-cancer cell lines, HCC1937, JIMT-1, L56Br-C1, MCF-7, and SK-BR-3, and compared with the cytotoxicity in the breast-derived non-cancerous cell line MCF-10A using the MTT colorimetric assay. […] 16 is an unsaturated ester and differs in that respect from the other compounds, but the lower activity of 3 compared to the similar compounds was unexpected. Costunolide (1) differs from the eudesmane sesquiterpenes by having the unsaturated lactone fused with a macrocyclic system instead of a cyclohexane ring, and the tension of the lactone ring is likely to be lower in 1. […] The difference in the activities of 7 and 8 may depend on the higher lipophilicity of 8, facilitating its absorption into the cells. In 11 and 14, the presence of a second Michael acceptor function may influence the activity. […] MCF-7 has a normal wild type p53 gene, which the MCF-10A cells also have, while the others have a mutated p53.
as §3, §4

JIMT-1 cells = assay: MTT cytotoxicity dose-response assay, JIMT-1; settings: 72 h treatment, a/b/c = one, two, three or more dose-response curves
Protocol: as §1, §2, §3, §4

MCF-10A cells = assay: MTT cytotoxicity dose-response assay, MCF-10A (non-cancerous); settings: normal-like breast epithelial cell line, 72 h treatment, a/b/c = one, two, three or more dose-response curves
Protocol: as §1, §2, §3, §4

Structure (SMILES)	IC50 (SK-BR-3 cells; Homo sapiens, SK-BR-3, 72 h)	IC50 at 72 h [1]	IC50 (L56Br-C1 cells; Homo sapiens, 72 h)	IC50 (HCC1937 cells; Homo sapiens, HCC1937, 72 h)	IC50 (MCF-7 cells; Homo sapiens, MCF7, 72 h)	Anticancer activity / relative potency in words [2]	IC50 (JIMT-1 cells; Homo sapiens, JIMT-1, 72 h)	IC50 (L56Br-C1 cells)	IC50 (JIMT-1 cells)	IC50 (HCC1937 cells)	IC50 ([2]; Homo sapiens, five breast cancer cell lines, read-out: IC50 values, range over the cancer cell lines)	IC50 (SK-BR-3 cells)	IC50 (MCF-7 cells)	IC50 (MCF-10A cells)
C=C1C(=O)O[C@@H]2[C@@H]3[C@@](C)(CC[C@@H]12)[C@@H](OC(C)=O)CC[C@]3(C)O (relative stereo) [Compound 3, (+)-(3aS*,5aR*,6S*,9S*,9aS*,9bS*)-9-Hydroxy-5a,9-dimethyl-3-methylidene-2-oxododeca-hydronaphtho[1,2-b]furan-6-yl acetate]	10.1 µM	38 µM	9.3 µM	23 µM	27 µM	lowest activity	18 µM							
C=C1CC[C@H](OC(C)=O)[C@]2(C)CC[C@H]3C(=C)C(=O)O[C@@H]3[C@@H]12 (relative stereo) [Compound 8, (3aS*,5aR*,6S*,9aS*,9bS*)-5a-Methyl-3,9-dimethylidene-2-oxododecahydro-naphtho[1,2-b]furan-6-yl acetate]	4.7 ± 1.1 µM	24 µM	8.4 µM		11 ± 1.7 µM		6.3 µM	12 µM	7 µM					
C=C1C(=O)O[C@@H]2/C=C(\C)CC/C=C(\C)CC[C@@H]12 [Compound 1, costunolide]	2 ± 1 µM	20 µM	3.7 µM	2.2 µM	5.3 ± 1.4 µM	most active in all of the cell lines	6.2 µM	4.8 µM	6.3 µM	4.2 µM	2 to 6.2 µM			
C=C1CC[C@@H](O)[C@]2(C)CC[C@H]3C(=C)C(=O)O[C@@H]3[C@@H]12 [Compound 6, reynosin]	5.2 ± 1.6 µM	17 µM	11 µM	10 µM	16.4 ± 7.1 µM		8.5 µM		12 µM					
C=C1C(=O)OC2C1CCC1(C)C(O)CCC(=C)C21 (stereo not drawn) [Compound 7, 1-epi-reynosin]	7.6 µM	22 µM	9 µM	12 µM	23 µM		12 µM	10.1 µM	14 µM	18.5 µM		6.4 µM	30 µM	
C=C1C(=O)O[C@@H]2[C@H]3C(C)=CC[C@@H](O)[C@]3(C)CC[C@@H]12 [Compound 9, santamarin]	3.1 ± 0.6 µM	17 µM	12.3 ± 5.5 µM	8.1 ± 1.8 µM	9.7 ± 0.9 µM		6.9 µM		7.2 µM					
C=C1C(=O)OC2C1CCC1(C)C(=O)C=CC(C)(O)C21 (stereo not drawn) [Compound 11, 11,13-didehydrovulgarin]	4.2 ± 2.1 µM	24 µM	3.6 µM	4.8 µM	10.1 µM		10 µM		13 µM	7.8 µM			18 µM	21 µM
C=C1C(=O)O[C@H]2[C@H]1CCC(C)=C1[C@@H](OC(C)=O)[C@H]3O[C@@]3(C)[C@@H]12 [Compound 12, 2β-acetoxy-3α,4α-epoxy-3,4-dihydrokauniolide]	4.2 ± 1.1 µM		6 µM	6 µM	7.1 µM		7.1 µM	10.1 µM	10.1 µM	7.8 µM			8.3 µM	
C=C1C(=O)O[C@@H]2[C@H]3C(C)=CC(=O)C3=C(C)CC[C@@H]12 [Compound 14, dehydroleucodin]	2.5 ± 0.4 µM	20 µM	5.8 µM	3 µM	3.3 µM		7.5 µM	10 µM	8.1 µM	5.2 µM			4.3 µM	23 µM
C=C(C(=O)OC)C1CCC2(C)C(O)CCC(=C)C2C1O (stereo not drawn) [Compound 16, baynol C]	9.9 ± 3 µM	29 µM	16 µM	24 µM	27.4 ± 17.2 µM	lowest activity	13 µM		23 µM					
COC(=O)C(N)CSCC1C(=O)OC2C1CCC1(C)C(O)CC=C(C)C21 (stereo not drawn) [Compound 21]	51 µM	41 µM	73 µM	100 µM	> 100 µM	significantly less potent; also recorded: inactive or considerably less potent	> 100 µM					40 µM		
